In the test the target is T1, ZIKV NS3-Hel (Zika virus NS3 helicase) (Zika virus ZIKV/H. sapiens/FrenchPolynesia/10087PF/2013, UniProt A0A024B7W1).
T1 construct: helicase domain, residues 171-617 of NS3, cut from the genome polyprotein; N-terminal 6xHis-SUMO tag cleaved off
Nature of the test: STD NMR titration; crystal structure also solved. The class given is binding.

This is an account of results in article PMC6274715, “Discovery of Novel Druggable Sites on Zika Virus NS3 Helicase Using X-ray Crystallography-Based Fragment Screening” (International Journal of Molecular Sciences, 2018).

A word on the Kd: it is the equilibrium constant for the complex coming apart. High values mean weaker binding, low ones tighter binding.

T1 sequence (A0A024B7W1 1673-2119): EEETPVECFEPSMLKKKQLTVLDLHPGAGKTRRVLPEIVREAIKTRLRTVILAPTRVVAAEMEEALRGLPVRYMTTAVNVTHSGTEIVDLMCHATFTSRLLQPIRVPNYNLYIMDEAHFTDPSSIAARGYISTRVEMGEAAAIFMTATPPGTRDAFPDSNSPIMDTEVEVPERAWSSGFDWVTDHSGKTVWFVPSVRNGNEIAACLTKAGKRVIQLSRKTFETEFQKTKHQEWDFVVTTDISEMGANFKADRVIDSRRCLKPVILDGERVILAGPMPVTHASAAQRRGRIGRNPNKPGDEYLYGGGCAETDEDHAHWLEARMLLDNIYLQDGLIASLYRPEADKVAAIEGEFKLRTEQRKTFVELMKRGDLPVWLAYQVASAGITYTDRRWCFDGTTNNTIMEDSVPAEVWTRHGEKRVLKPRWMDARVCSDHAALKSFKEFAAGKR

In the case of `Nc1nc(N)c2[nH]cnc2n1` [compound 1, 2,6-di-aminopurine], binding was characterised by a dissociation constant (Kd) of 2.8 ± 0.4 mM. The result for `NC(=O)c1ccc(Cl)cc1Cl` [compound 4, 2,4-dicholorobenzamide] reads 5.1 ± 1.4 mM.
